The nature of series [1]: Plasma stability determination. Format: in vitro ADME, human, monkey, dog, rat and mouse. Conditions: all tested species; 5 μM, 60 mins, remaining percentage. Here is the method: STP0404 was incubated with human, monkey, dog, rat and mouse plasma. These incubations were carried out at a test concentration of 5 μM with an incubation period of 60 mins. Samples of human, monkey, dog, rat and mouse were taken at 0, 15, 30, 45, 60 mins. And stop the reaction by taking 50 μL aliquots to 400 μL acetonitrile with internal standard. Propantheline was used as positive control for human, monkey and mouse plasma and mevinolin as the positive control for dog and rat plasma. The remaining percentage was tested. This test was conducted by a fee to service through Pharmaron (Beijing, China).

The test system of series [2] is Salmonella typhimurium (TA100, TA1535, TA98, TA1537) and Escherichia coli (WP2uvrA). Briefly: Bacterial reverse mutation assay (GLP). Conditions: five bacterial strains. The procedure:
Bacterial reverse mutation assay (Study no. YL18407). The bacterial reverse mutation assay of STP0404 was performed in two conditions (with or without metabolic activation) for the dose range-finding test (doses of STP0404rangingfrom 2.29 to 5,000μg/plate) and the main test (doses of STP0404 ranging from 19.5 to 5,000 μg/plate) in comparison with negative control (DMSO) and active controls (sodium azide, 2-(2-furyl)-3-(5-nitro-2-furyl) acrylamide, 2-aminoanthracene, 9-aminoacridine hydrochloride). Salmonella typhimurium (TA100, TA1535) and Escherichia coli (WP2uvrA) were used for detection of base-pair substitutions. Salmonella typhimurium (TA98, TA1537) was used for detection of frameshift mutations. Chromosomal Aberration Test of STP0404 in Cultured Mammalian Cells (Study no. YL18408). Presence/absence of genotoxicity of STP0404 was determined using chromosomal aberration test carried out in CHL/IU cells. The test comprised a dose range-finding test and a main test. Micronucleus Study of STP0404 by oral administration in Rats (Study no. YL18409). STP0404 was administered orally to SD rats (3/group in preliminary test and 6/group in the main test) at dose levels of 500, 1000 and 2000 mg/kg/day once daily for 2 days in a two-test study (preliminary test and main test) to investigate the genotoxicity profile of STP0404. […] Bone marrow smear slides were evaluated (INA Research, Japan).

A further series concerns HIV-1_89.6. Briefly: In vitro anti-viral assay in CEMx174 cells (p24). Format: cell-based. The procedure:
CEMx174 cells were infected with HIV-1 primary isolate 89.6 (From infectious clone p89.6, NIH AIDS Reagent Program) at approximately at 10% of cell population determined by FACS analyses. To determine antiviral activity during virus production, STP0404 was added at concentration in the range of 0.1 nM—10 μM during media exchange at 4 hrs post-infection. DMSO was used as a negative control. Cell-free supernatants were measured for p24 antigen production, 5 days post-infection. The anti-HIV-1 efficacy of the two enantiomers of STP0404 were also determined by using the same protocol. All assays were conducted in triplicates. The IC50 values were computed using GraphPad Prism (Version 9) and presented as means ± S.D. of the triplicates. For SIVmac239, CEMx174 cells were infected with viral supernatant containing SIVmac293 at 50,000 TCID50/mL (kind gift from Dr. G. Silvestri, Emory Yerkes National Primate Research Center) with 100 μL/10^6 cells at varying concentrations of STP0404, BI224436, and Raltegravir, and the same above protocol was followed except for that p27 capsid antigen content was measured daily for 5 days post infection.

A short description of series [3]: In vivo pharmacokinetics, summary over rats and dogs. More on the design: species or system SD rats and beagle dogs. Conditions: Sprague-Dawley (rat), beagle (dog), plasma, range over rats and dogs. Here is the method: (§1) Study design: […]). Group 1 was dosed with STP0404 at 1 mg/kg by single intravenous administration. Groups 2 to 4 were dosed with STP0404 at 20, 40 and 80 mg/kg, respectively, by single oral administration. The vehicle used for IV study was DMSO: PEG400: […] Blood samples were collected at 0.0833, 0.25, 0.5, 1, 2, 4, 8, 12 (only for PO groups) and 24 hrs post-dose for Groups 1 to 4. STP0404 concentrations in plasma samples were determined by LC-MS/MS. Preclinical Dog pharmacokinetics study (Study no. 400751-2015020201-DPK): A total of 6 male Beagle dogs were divided into two groups (3 animals/group). Following single STP0404 2 mg/kg oral and intravenous administration to Beagle Dogs, STP0404 concentration was determined in plasma, and pharmacokinetic parameters were calculated. […] The concentrations of STP0404 in plasma were determined by using a LC/MS/MS method.

A short description of series [4]: In vivo pharmacokinetics in SD rats. The following applies: Sprague-Dawley, plasma, Rat. Here is the method: as §1, with “Groups 2 to 4 were dosed with STP0404 at 20, 40 and 80 mg/kg, respectively, by single oral administration.” left out
Setting [5] is: Human immunodeficiency virus 1, CEMx174.

pIC50: −log10 of the molar value.

A word on the pIC50: it is the negative decadic logarithm of the IC50, by convention in mol/L. What is called IC90 is the concentration needed for an effect of 90%. One may read the bioavailability as dose-corrected exposure relative to a reference, in per cent. One may read the AUC as concentration integrated over time. A higher AUC goes with high exposure. For orientation: Cmax means the highest concentration seen after dosing. As to `Cc1nc2c(c(C)c(C)n2Cc2cnn(C)c2)c(-c2ccc(Cl)cc2)c1[C@H](OC(C)(C)C)C(=O)O` [STP0404], the plasma stability in series [1] is on record as approximately 100%. In addition, the gene mutation-inducing potential result in series [2] is given as “lacked”. Moreover, in the series on HIV-1_89.6 (HIV-1 89.6 / CEMx174 cells), the “TI (TC50 / IC50)” value is > 7,140. In the series on HIV-1_89.6 (setting [5]), this compound gave a pIC50 of 8.85 and a concentration for an effect of 90% (IC90) of 21 nM. Besides, the half-life in series [3] (intravenous, oral, read-out: half-life (T1/2)) was in the range of 3 to 7 h. The bioavailability in series [3] (po, read-out: oral bioavailability (Ft)) fell in the range of 50 to 93%. In series [4] (iv, 5 mg/kg (i.v)), this compound gave an AUC of 42.7 µM·h and a half-life of 3.83 h. In series [4] (po, 10 mg/kg (p.o)), the exposure (AUC) amounted to 78 µM·h, the Cmax came out at 21.4 µM and the half-life is 4.56 h. In series [4] (po, 10 mg/kg (p.o), read-out: Ft (oral bioavailability)), the bioavailability worked out at 92.8%.

For the origin of these results see paper PMC8297771 (PLoS Pathogens, 2021).
